Molecules are shown by their SMILES.

Chain of USP1 (construct USP1 (I-785, GG670, 671AA)/UAF1 (I-677)-Flag) (O94782 whole entry G670A/G671A): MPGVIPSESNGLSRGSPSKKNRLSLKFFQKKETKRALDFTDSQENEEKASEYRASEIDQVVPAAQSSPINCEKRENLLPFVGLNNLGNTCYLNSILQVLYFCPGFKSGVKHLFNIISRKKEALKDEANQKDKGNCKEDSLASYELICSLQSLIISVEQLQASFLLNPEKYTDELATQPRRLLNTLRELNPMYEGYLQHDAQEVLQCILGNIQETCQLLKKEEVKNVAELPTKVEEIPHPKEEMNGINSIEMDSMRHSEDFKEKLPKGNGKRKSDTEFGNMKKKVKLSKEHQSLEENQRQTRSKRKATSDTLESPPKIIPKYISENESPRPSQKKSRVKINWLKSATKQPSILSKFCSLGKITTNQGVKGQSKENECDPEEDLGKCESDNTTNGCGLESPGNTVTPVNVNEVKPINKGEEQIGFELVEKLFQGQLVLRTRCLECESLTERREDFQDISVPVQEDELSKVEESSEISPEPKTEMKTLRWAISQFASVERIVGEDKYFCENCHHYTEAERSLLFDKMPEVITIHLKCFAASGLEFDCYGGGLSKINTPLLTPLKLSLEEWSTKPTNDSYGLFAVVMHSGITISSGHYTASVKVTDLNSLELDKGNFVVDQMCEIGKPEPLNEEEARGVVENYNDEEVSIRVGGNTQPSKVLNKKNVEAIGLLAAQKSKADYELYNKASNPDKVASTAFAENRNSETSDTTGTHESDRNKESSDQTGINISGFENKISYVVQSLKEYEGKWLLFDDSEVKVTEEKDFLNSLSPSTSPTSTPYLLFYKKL
Chain of USP1 (construct USP1 (I-785, GG670, 671AA)/UAF1 (I-677)-Flag) (Q8TAF3 whole entry partner): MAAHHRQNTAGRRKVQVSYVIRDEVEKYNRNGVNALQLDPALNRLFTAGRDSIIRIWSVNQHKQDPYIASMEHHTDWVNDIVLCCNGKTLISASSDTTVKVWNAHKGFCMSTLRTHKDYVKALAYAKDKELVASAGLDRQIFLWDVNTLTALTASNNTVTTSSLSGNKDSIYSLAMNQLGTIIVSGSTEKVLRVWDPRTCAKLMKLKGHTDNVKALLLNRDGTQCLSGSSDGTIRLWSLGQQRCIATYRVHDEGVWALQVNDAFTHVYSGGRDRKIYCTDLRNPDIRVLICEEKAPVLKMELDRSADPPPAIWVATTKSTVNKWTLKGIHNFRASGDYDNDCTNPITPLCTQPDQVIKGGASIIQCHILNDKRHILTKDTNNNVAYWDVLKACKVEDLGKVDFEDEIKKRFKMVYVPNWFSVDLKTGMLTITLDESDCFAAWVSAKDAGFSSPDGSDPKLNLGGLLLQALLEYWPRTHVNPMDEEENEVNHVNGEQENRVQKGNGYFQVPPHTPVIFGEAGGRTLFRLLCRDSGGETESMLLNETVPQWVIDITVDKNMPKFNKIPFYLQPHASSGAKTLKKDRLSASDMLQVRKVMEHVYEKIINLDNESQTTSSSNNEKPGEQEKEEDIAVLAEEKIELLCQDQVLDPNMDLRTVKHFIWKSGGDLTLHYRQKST

For the assay, the target named is USP1 (construct USP1 (I-785, GG670, 671AA)/UAF1 (I-677)-Flag) (Homo sapiens (Human), UniProt O94782, G670A/G671A). As to the kind of experiment: Ubiquitin-Rhodamine 110 assay for USP1 activity. The format is biochemical. Conditions: USP1/UAF1 25 pM, Ub-Rh110 25 nM, 30 min preincubation. Put shortly:
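Two formats with the USP1/UAF1 complex and 25 nM ubiquitin-rhodamine 110 in pH 8.0 Tris buffer with calcium, glutathione and detergent. Single-point screening used 10 µM, 100 pM enzyme and 45 min. Inhibition was set against no-enzyme and DMSO wells.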
`CCN(C)C(=O)c1ccc(Cn2c(=O)[nH]c3cnc(-c4ccccc4C(C)C)nc32)cc1` [Compound I-373, N-ethyl-4-((2-(2-isopropylphenyl)-8-oxo-7,8-dihydro-9H-purin-9-yl)methyl)-N-methylbenzamide] came in with an IC50 of less than 50 nM.
In turn, `CC(C)c1c(F)cccc1-c1ncc2c(n1)n(Cc1ccc(-n3cccn3)cc1)c(=O)n2C` [Compound I-8, 9-(4-(1H-pyrazol-1-yl)benzyl)-2-(3-fluoro-2-isopropylphenyl)-7-methyl-7,9-dihydro-8H-purin-8-one] gave an IC50 of less than 50 nM.
Next, `CC(C)c1ccccc1-c1ncc2[nH]c(=O)n(Cc3ccc(C(=O)N4CCOC[C@@H]4C)cc3)c2n1` [Compound I-405, (S)-2-(2-isopropylphenyl)-9-(4-(3-methylmorpholine-4-carbonyl)benzyl)-7,9-dihydro-8H-purin-8-one]: 200 to 2000 nM; `Cc1nnc(-c2ccc(Cn3c(=O)[nH]c4cnc(-c5ccccc5C(C)C)nc43)cc2)o1` [Compound I-150, 2-(2-isopropylphenyl)-9-(4-(5-methyl-1,3,4-oxadiazol-2-yl)benzyl)-7,9-dihydro-8H-purin-8-one]: less than 50 nM.
Compound `CC(C)c1ccccc1-c1ncc2[nH]c(=O)n(Cc3ccc(-c4nc(C(F)(F)F)cn4C4CN(C)C4)cc3)c2n1` [Compound I-447, 2-(2-isopropylphenyl)-9-(4-(1-(1-methylazetidin-3-yl)-4-(trifluoromethyl)-1H-imidazol-2-yl)benzyl)-7,9-dihydro-8H-purin-8-one] had an IC50 of less than 50 nM.
`CC(C)c1ccccc1-c1ncc2[nH]c(=O)n(Cc3ccc(-n4cc(-c5ccccc5)nn4)cc3)c2n1` [Compound I-340, 2-(2-isopropylphenyl)-9-(4-(4-phenyl-1H-1,2,3-triazol-1-yl)benzyl)-7,9-dihydro-8H-purin-8-one] had an IC50 of 200 to 2000 nM.
Next, `CC(C)c1ccccc1-c1ncc2[nH]c(=O)n(Cc3ccc(-c4ncc(C5CCN(C)CC5)n4C)cc3)c2n1` [Compound I-446, 2-(2-isopropylphenyl)-9-(4-(1-methyl-5-(1-methylpiperidin-4-yl)-1H-imidazol-2-yl)benzyl)-7,9-dihydro-8H-purin-8-one]: less than 50 nM; `CC(C)c1ccccc1-c1ncc2[nH]c(=O)n(Cc3ccc(-n4cc([C@@H](C)O)nn4)cc3)c2n1` [Compound I-347, (R)-9-(4-(4-(1-hydroxyethyl)-1H-1,2,3-triazol-1-yl)benzyl)-2-(2-isopropylphenyl)-7,9-dihydro-8H-purin-8-one]: greater than 2000 nM; `CC(C)c1c(F)cccc1-c1ncc2[nH]c(=O)n(Cc3ccc(-c4nccn4C)cc3)c2n1` [Compound I-172, 2-(3-fluoro-2-isopropylphenyl)-9-(4-(1-methyl-1H-imidazol-2-yl)benzyl)-7,9-dihydro-8H-purin-8-one]: less than 50 nM.
`CC(C)c1ccccc1-c1ncc2c(n1)n(Cc1ccc(-c3nc(C(F)(F)F)n(C)n3)cc1)c(=O)n2C` [Compound I-280, 2-(2-isopropylphenyl)-7-methyl-9-(4-(1-methyl-5-(trifluoromethyl)-1H-1,2,4-triazol-3-yl)benzyl)-7,9-dihydro-8H-purin-8-one] came in with a half-maximal inhibitory concentration (IC50) of less than 50 nM.
Under `CCN(C)c1ncccc1-c1ncc2[nH]c(=O)n(Cc3ccc(-c4nc(C(F)(F)F)cn4C)cc3)c2n1` [Compound I-331, 2-(2-(ethyl(methyl)amino)pyridin-3-yl)-9-(4-(1-methyl-4-(trifluoromethyl)-1H-imidazol-2-yl)benzyl)-7,9-dihydro-8H-purin-8-one] stands less than 50 nM; under `Cn1cc(C(F)(F)F)nc1-c1ccc(Cn2c(=O)[nH]c3cnc(-c4cccnc4OCC4CCCO4)nc32)cc1` (stereo not shown) [Compound I-424, 9-(4-(1-methyl-4-(trifluoromethyl)-1H-imidazol-2-yl)benzyl)-2-(2-((tetrahydrofuran-2-yl)methoxy)pyridin-3-yl)-7,9-dihydro-8H-purin-8-one], less than 50 nM.
Compound `CC(C)c1ccccc1-c1ncc2[nH]c(=O)n(Cc3ccc(-n4ccnn4)cc3)c2n1` [Compound I-139, 9-(4-(1H-1,2,3-triazol-1-yl)benzyl)-2-(2-isopropylphenyl)-7,9-dihydro-8H-purin-8-one] came in with an IC50 of 50 to 200 nM.
For `CC(C)c1ccccc1-c1ncc2[nH]c(=O)n(Cc3ccc(C(=O)N4C[C@@H](C)O[C@@H](C)C4)cc3)c2n1` [Compound I-385, 9-(4-((2R,6S)-2,6-dimethylmorpholine-4-carbonyl)benzyl)-2-(2-isopropylphenyl)-7,9-dihydro-8H-purin-8-one], the IC50 is 50 to 200 nM.
Under `CC(C)c1ccccc1-c1ncc2c(n1)n(Cc1ccc(-c3nccn4ccnc34)cc1)c(=O)n2C` [Compound I-289, 9-(4-(imidazo[1,2-a]pyrazin-8-yl)benzyl)-2-(2-isopropylphenyl)-7-methyl-7,9-dihydro-8H-purin-8-one] stands less than 50 nM; under `CC(C)c1ccccc1-c1ncc2[nH]c(=O)n(CC3(F)CCN(C(=O)OC(C)(C)C)CC3)c2n1` [Compound I-220, tert-butyl 4-fluoro-4-((2-(2-isopropylphenyl)-8-oxo-7,8-dihydro-9H-purin-9-yl)methyl)piperidine-1-carboxylate], 50 to 200 nM.
`CCc1ccccc1-c1ncc2[nH]c(=O)n(Cc3ccc(-n4cccn4)cc3)c2n1` [Compound I-27, 9-(4-(1H-pyrazol-1-yl)benzyl)-2-(2-ethylphenyl)-7,9-dihydro-8H-purin-8-one] displayed an IC50 of 50 to 200 nM.
Next, `COCCn1cc(-c2ccc(Cn3c(=O)[nH]c4cnc(-c5ccccc5C(C)C)nc43)cc2)cn1` [Compound I-518, 2-(2-Isopropylphenyl)-9-(4-(1-(2-methoxyethyl)-1H-pyrazol-4-yl)benzyl)-7,9-dihydro-8H-purin-8-one]: 50 to 200 nM; `CC(C)c1ccccc1-c1ncc2[nH]c(=O)n(Cc3ccc(-c4ccc(CCN(C)C)cc4)cc3)c2n1` [Compound I-249, 9-((4′-(2-(dimethylamino)ethyl)-[1,1′-biphenyl]-4-yl)methyl)-2-(2-isopropylphenyl)-7,9-dihydro-8H-purin-8-one]: 200 to 2000 nM; `CC(C)c1c(F)cccc1-c1ncc2c(n1)n(Cc1ccc(-c3nc(C(F)(F)F)cn3C)cc1)c(=O)n2C` [Compound I-65, 2-(3-fluoro-2-isopropylphenyl)-7-methyl-9-(4-(1-methyl-4-(trifluoromethyl)-1H-imidazol-2-yl)benzyl)-7,9-dihydro-8H-purin-8-one]: less than 50 nM.
Compound `CC(C)c1ncccc1-c1ncc2[nH]c(=O)n(Cc3c(F)cc(-c4nc(C(F)(F)F)cn4C)cc3F)c2n1` [Compound I-85, 9-(2,6-difluoro-4-(1-methyl-4-(trifluoromethyl)-1H-imidazol-2-yl)benzyl)-2-(2-isopropylpyridin-3-yl)-7,9-dihydro-8H-purin-8-one] came in with an IC50 of 50 to 200 nM.
Regarding `CC(C)c1ccccc1-c1ncc2[nH]c(=O)n(Cc3ccc(-n4cc(C(C)(C)O)nn4)cc3)c2n1` [Compound I-345, 9-(4-(4-(2-hydroxypropan-2-yl)-1H-1,2,3-triazol-1-yl)benzyl)-2-(2-isopropylphenyl)-7,9-dihydro-8H-purin-8-one], the IC50 was in the range of 200 to 2000 nM.
Next, `CC(C)c1ccccc1-c1ncc2[nH]c(=O)n([C@H](C)c3ccc(F)cc3)c2n1` [Compound I-178, (R)-9-(1-(4-fluorophenyl)ethyl)-2-(2-isopropylphenyl)-7,9-dihydro-8H-purin-8-one]: less than 50 nM; `CC(C)c1ccccc1-c1ncc2[nH]c(=O)n(Cc3ccc(C(=O)Nc4nccn4C)cc3)c2n1` [Compound I-372, 4-((2-(2-isopropylphenyl)-8-oxo-7,8-dihydro-9H-purin-9-yl)methyl)-N-(1-methyl-1H-imidazol-2-yl)benzamide]: 50 to 200 nM; `CC(C)COc1ncccc1-c1ncc2[nH]c(=O)n(Cc3ccc(-n4nccn4)cc3)c2n1` [Compound I-5, 9-(4-(2H-1,2,3-triazol-2-yl)benzyl)-2-(2-isobutoxypyridin-3-yl)-7,9-dihydro-8H-purin-8-one]: greater than 2000 nM.
Next, `CC(=O)N1CCN(C(=O)c2ccc(Cn3c(=O)[nH]c4cnc(-c5ccccc5C(C)C)nc43)cc2)CC1` [Compound I-383, 9-(4-(4-acetylpiperazine-1-carbonyl)benzyl)-2-(2-isopropylphenyl)-7,9-dihydro-8H-purin-8-one]: 200 to 2000 nM; `CC(C)c1ccccc1-c1ncc2c(n1)n(Cc1ccc(-c3nc(C(F)(F)F)cn3C)cc1)c(=O)n2C` [Compound I-63, 2-(2-isopropylphenyl)-7-methyl-9-(4-(1-methyl-4-(trifluoromethyl)-1H-imidazol-2-yl)benzyl)-7,9-dihydro-8H-purin-8-one]: less than 50 nM; `Cc1cc(C(=O)N(C)C)nn1-c1ccc(Cn2c(=O)[nH]c3cnc(-c4ccccc4C4CC4)nc32)cc1` [Compound I-504, 1-(4-((2-(2-Cyclopropylphenyl)-8-oxo-7,8-dihydro-9H-purin-9-yl)methyl)phenyl)-N,N,5-trimethyl-1H-pyrazole-3-carboxamide]: 50 to 200 nM.
Regarding `Cn1cc(C(F)(F)F)nc1-c1ccc(Cn2c(=O)n(C)c3cnc(-c4cccnc4OC4CC4)nc32)cc1` [Compound I-137, 2-(2-cyclopropoxypyridin-3-yl)-7-methyl-9-(4-(1-methyl-4-(trifluoromethyl)-1H-imidazol-2-yl)benzyl)-7,9-dihydro-8H-purin-8-one], the IC50 is less than 50 nM.
Under `CC(C)c1ccncc1-c1ncc2c(n1)n(Cc1ccc(-n3cccn3)cc1)c(=O)n2C` [Compound I-17, 9-(4-(1H-pyrazol-1-yl)benzyl)-2-(4-isopropylpyridin-3-yl)-7-methyl-7,9-dihydro-8H-purin-8-one] stands greater than 2000 nM.
`CC(C)(O)c1ccccc1-c1ncc2[nH]c(=O)n(Cc3ccc(-n4cccn4)cc3)c2n1` [Compound I-528, 9-(4-(1H-Pyrazol-1-yl)benzyl)-2-(2-(2-hydroxypropan-2-yl)phenyl)-7,9-dihydro-8H-purin-8-one] gave an IC50 of 200 to 2000 nM.

Usually IC50 stands for the concentration at which inhibition is half-maximal.

Source of the values: patent US10189841B2, “Purinones as ubiquitin-specific protease 1 inhibitors” (Forma Therapeutics, Inc., priority 2015, dated 2019).
